{"source": "ChEMBL document CHEMBL1201862", "about": "“PubChem BioAssay data set” (2004)", "key": {"[1]": {"experiment": "M. tuberculosis growth inhibition, HTS (AID 449762)", "type": "functional"}, "[2]": {"target": "Sphingosine 1-phosphate receptor 2 (Homo sapiens, UniProt O95136)", "sequence (O95136 whole entry)": "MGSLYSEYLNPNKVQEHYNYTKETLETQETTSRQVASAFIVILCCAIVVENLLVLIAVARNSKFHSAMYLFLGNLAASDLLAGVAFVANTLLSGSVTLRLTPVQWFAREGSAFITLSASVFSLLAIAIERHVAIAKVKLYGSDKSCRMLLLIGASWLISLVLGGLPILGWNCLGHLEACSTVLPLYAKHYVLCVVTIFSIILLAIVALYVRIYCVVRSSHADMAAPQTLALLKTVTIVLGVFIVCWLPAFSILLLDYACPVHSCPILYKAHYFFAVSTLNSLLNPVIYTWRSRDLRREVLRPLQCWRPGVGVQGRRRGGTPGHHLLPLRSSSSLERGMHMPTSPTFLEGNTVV", "experiment": "Dose Response Cell Based Assay for Agonists of the S1P2 Receptor. [Related pubchem assays: 729, 736, 843 ]", "type": "functional"}, "[3]": {"target": "Lysine-specific demethylase 4C (Homo sapiens, UniProt Q9H3R0)", "sequence (Q9H3R0 whole entry)": "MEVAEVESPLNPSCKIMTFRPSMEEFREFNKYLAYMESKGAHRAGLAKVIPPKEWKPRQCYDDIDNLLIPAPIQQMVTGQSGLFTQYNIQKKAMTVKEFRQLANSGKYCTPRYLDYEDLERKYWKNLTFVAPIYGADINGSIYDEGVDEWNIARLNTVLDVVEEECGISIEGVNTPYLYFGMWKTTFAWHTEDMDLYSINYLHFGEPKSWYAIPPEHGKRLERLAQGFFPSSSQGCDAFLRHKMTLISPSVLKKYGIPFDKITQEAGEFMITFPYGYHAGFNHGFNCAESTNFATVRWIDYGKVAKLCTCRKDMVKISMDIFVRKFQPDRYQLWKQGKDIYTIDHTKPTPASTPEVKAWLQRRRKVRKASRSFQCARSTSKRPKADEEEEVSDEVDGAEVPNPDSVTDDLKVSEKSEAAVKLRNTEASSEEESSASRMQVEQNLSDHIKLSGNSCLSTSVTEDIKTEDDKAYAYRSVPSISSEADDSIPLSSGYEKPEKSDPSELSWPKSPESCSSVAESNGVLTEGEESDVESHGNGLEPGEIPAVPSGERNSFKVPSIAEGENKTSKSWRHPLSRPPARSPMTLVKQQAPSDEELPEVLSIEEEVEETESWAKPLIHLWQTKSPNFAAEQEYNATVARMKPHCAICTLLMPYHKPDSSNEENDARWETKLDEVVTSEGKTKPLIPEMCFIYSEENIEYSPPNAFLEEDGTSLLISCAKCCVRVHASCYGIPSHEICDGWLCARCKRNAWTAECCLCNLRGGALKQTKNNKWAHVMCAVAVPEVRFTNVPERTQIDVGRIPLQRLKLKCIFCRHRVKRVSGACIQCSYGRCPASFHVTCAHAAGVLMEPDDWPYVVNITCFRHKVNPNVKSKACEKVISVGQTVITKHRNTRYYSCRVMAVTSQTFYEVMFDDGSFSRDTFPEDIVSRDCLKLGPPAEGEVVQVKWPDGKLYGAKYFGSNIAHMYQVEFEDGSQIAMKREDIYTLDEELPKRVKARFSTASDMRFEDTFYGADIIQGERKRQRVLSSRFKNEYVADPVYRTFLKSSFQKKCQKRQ", "experiment": "inhibition of JMJD2C H3K9me3 demethylation – biochemical, DELFIA europium, cherry-picked samples, dose response (AID 488835)", "type": "functional"}, "Transthyretin": {"target": "Transthyretin (Homo sapiens, UniProt P02766)", "experiment": "Luminescence-based cell-based high throughput dose response assay to identify activators of Transthyretin (TTR) transcription.", "type": "functional"}, "[4]": {"experiment": "viability inhibitors of stage V gametocytes – luminescence, dose response (AID 1117278);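 also: gametocytes exposed to compound for 24 hours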", "type": "functional, cell-based"}, "[5]": {"experiment": "viability loss in human Jurkat cells – cell-based, luminescence, cytotoxicity control for P. falciparum gametocyte viability project, dose response (AID 1117277);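 also: potency reflects loss of cellular ATP meaning fewer viable cells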", "type": "functional"}, "[6]": {"experiment": "viability loss in Vero cells – cytotoxicity control for Vif-APOBEC3G degradation inhibitor project, dose response (AID 1117358)", "type": "functional", "settings": "Vero"}, "[7]": {"test_system": "Streptococcus sp. 'group A'", "experiment": "Streptococcus pyogenes SK(-)GAS viability under kanamycin – luminescence, BacTiterGlo, confirmation, counter-screen for streptokinase expression inhibitor project, dose response (AID 1900)", "type": "functional, organism-based"}, "Streptokinase A": {"target": "T1, Streptokinase A (Streptococcus pyogenes serotype M1, UniProt P10520)", "T1 sequence (P10520 whole entry)": "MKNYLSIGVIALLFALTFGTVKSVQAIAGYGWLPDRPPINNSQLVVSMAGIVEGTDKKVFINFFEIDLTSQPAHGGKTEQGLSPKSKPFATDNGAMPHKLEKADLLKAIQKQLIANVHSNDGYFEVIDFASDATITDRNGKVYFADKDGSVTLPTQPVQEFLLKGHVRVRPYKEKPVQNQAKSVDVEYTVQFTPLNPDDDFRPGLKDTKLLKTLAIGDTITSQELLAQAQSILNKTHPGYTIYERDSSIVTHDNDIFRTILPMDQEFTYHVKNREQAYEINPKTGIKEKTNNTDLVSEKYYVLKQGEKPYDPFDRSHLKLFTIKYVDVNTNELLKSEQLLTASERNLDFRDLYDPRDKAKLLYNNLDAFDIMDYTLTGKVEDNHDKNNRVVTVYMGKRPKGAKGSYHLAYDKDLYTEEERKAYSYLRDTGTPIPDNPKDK", "experiment": "viability-normalized secreted streptokinase activity reduction – plasminogen activation absorbance, OD405, dose response (AID 1914);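 also: secreted streptokinase activity via plasminogen activation per viability signal from cell pellet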", "type": "functional, Streptococcus pyogenes M1 GAS"}, "Streptococcus": {"test_system": "Streptococcus", "experiment": "GAS UMAA2166 growth inhibition – luminescence, BacTiterGlo, counter-screen for streptokinase expression inhibitor project, dose response (AID 1915);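 also: potency for reduction of bacterial viability or growth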", "type": "functional, organism-based"}, "[8]": {"experiment": "Late stage results for the probe development effort to identify inhibitors of Plasmodium falciparum gametocytes: Luminescence-based cell-based high throughput dose response assay to identify inhibitors of viability of late stage Plasmodium falciparum gametocytes.", "type": "functional"}, "[9]": {"experiment": "CellTiter-Glo luminescence survival assay, SW480 colon tumor line, concentration-response curve, half-maximal inhibitory concentration (AID 1117338)", "type": "functional"}, "[10]": {"experiment": "RKO cell viability reduction, dose response, CellTiter-Glo luminescence (AID 1117322)", "type": "functional"}, "[11]": {"experiment": "cytotoxicity toward HCT116 cells – cell-based, CellTiter-Glo luminescence, IC50, dose response (AID 1117332)", "type": "functional", "settings": "HCT-116"}, "[12]": {"experiment": "SNU-C1 cell viability reduction, dose response, CellTiter-Glo luminescence (AID 1117323)", "type": "functional, cell-based"}, "[13]": {"experiment": "cytotoxicity toward Colo320 cells – cell-based, CellTiter-Glo luminescence, IC50, dose response (AID 1117334)", "type": "functional", "settings": "COLO 320"}, "[14]": {"experiment": "cytotoxicity toward HT-29 cells – cell-based, CellTiter-Glo luminescence, IC50, dose response (AID 1117330)", "type": "functional"}, "[15]": {"experiment": "Reduced DLD-1 viability, concentration-response, CellTiter-Glo luminescence (AID 1117352)", "type": "functional"}, "[16]": {"experiment": "HCT116 cell viability decrease, GSK3B pretreatment – CellTiter-Glo, IC50, dose response (AID 1117339)", "type": "functional", "settings": "HCT-116"}}, "note": "The source made the active and inactive calls.", "data": [{"compound": "CC(=O)N1C(Nc2ccc(Cl)cc2)CCN1c1ccccc1", "note": "(centres undefined)", "values": [{"measurement": "IC50", "setting": "[1]", "result": "> 100 µM (active)"}]}, {"compound": "NC(=O)c1ccc(NC(=O)C2CCCO2)cc1", "note": "(centres undefined)", "values": [{"measurement": "EC50", "setting": "[2]", "result": "> 50 µM (not active)"}]}, {"compound": "Cc1ccc(C2CC(c3ccccc3)=NN2C(S)=Nc2ccccc2)o1", "note": "(centres undefined)", "values": [{"measurement": "AC50", "setting": "[3]", "result": "20.5 µM (active)"}, {"measurement": "EC50", "setting": "Transthyretin", "result": "> 167 µM (inactive)"}]}, {"compound": "CC(C)OC(=O)c1c(NC(=O)c2ccco2)sc2c1CCCC2", "values": [{"measurement": "IC50", "setting": "[4]", "result": "> 109 µM (inactive)"}, {"measurement": "IC50", "setting": "[5]", "result": "> 83.2 µM (inactive)"}]}, {"compound": "O=C(Nc1cccc(Cl)c1)C1=Cc2cc(Cl)ccc2OC1", "values": [{"measurement": "CC50", "setting": "[6]", "result": "> 40 µM (active)"}]}, {"compound": "O=C(NC1=NCCS1)c1cc(-c2ccccc2)nn1-c1ccccc1", "values": [{"measurement": "EC50", "setting": "[7]", "result": "> 150 µM (not active)"}, {"measurement": "EC50", "setting": "Streptokinase A", "result": "34.2 µM (active)"}, {"measurement": "EC50", "setting": "Streptococcus", "result": "> 150 µM (not active)"}, {"measurement": "IC50", "setting": "[8]", "result": "> 37.2 µM (inactive)"}]}, {"compound": "C=CCCCCCCCCC(=O)OC", "values": [{"measurement": "IC50", "setting": "[9]", "result": "> 20 µM (inactive)"}, {"measurement": "IC50", "setting": "[10]", "result": "> 20 µM (inactive)"}, {"measurement": "IC50", "setting": "[11]", "result": "> 20 µM (inactive)"}, {"measurement": "IC50", "setting": "[12]", "result": "> 20 µM (inactive)"}, {"measurement": "IC50", "setting": "[13]", "result": "> 20 µM (inactive)"}, {"measurement": "IC50", "setting": "[14]", "result": "> 20 µM (inactive)"}, {"measurement": "IC50", "setting": "[15]", "result": "> 20 µM (inactive)"}, {"measurement": "IC50", "setting": "[16]", "result": "> 20 µM (inactive)"}]}]}
